Entries after “also recorded” stand apart in the source; their conditions may differ.
Tests used:
[1] = system: bone marrow derived neutrophils; assay: Two chamber in vitro migration assay, neutrophils; type: cell-based, mouse
Experimental: (§1) Migration of bone marrow derived neutrophils or macrophages was assessed in vitro in a two chamber migration assay. Transwell inserts [3 μm (BD #353096) or 8 μm (BD #353097) pore size for neutrophils or macrophages respectively] were coated with matrigel (50 μg/ml; BD #354234). 5×10^5 neutrophils or macrophages were plated in 500 μl medium onto the upper chamber. Cells were left untreated or treated with CD95L-T4 by adding 10, 20 and 40 ng/ml to the upper chamber. The number of migrated cells was counted 3 hours for neutrophils and 24 hours for macrophages after treatment.
The role of metalloproteinases on neutrophil recruitment was investigated by using selective inhibitors of MMP-2/9. Neutrophils were pre-incubated with MMP-2/9 inhibitor (50 μM; Calbiochem #444251) 30 minutes prior to CD95L-T4 treatment and migrating cells were calculated.
Migration of bone marrow derived neutrophils or macrophages was assessed in vitro in a two chamber migration assay. Transwell inserts [3 μm (BD #353096) or 8 μm (BD #353097) pore size for neutrophils or macrophages, respectively] were coated with matrigel (50 μg/ml; BD #354234). 5×10^5 neutrophils, 1×10^6 dHL60 or 2×10^5 macrophages were plated in 500 μl medium onto the upper chamber. Cells were left untreated or treated with CD95L-T4 (engineered Mus musculus CD95L (Kleber et al., 2008)) by adding 10, 20 and 40 ng/ml to the upper chamber. The number of migrated cells was counted 3 h for neutrophils, 4 h for dHL-60 and 24 h for macrophages after treatment by using a hemocytometer. […] Data of the migration assays are representative of at least 4 independent experiments with 6 technical replicates per condition.
(§2) The role of metalloproteinases on neutrophil and macrophage recruitment was investigated by using selective inhibitors of MMP-2/9. Neutrophils, dHL-60 and macrophages were pre-incubated with MMP-2/9 inhibitors (50 μM; Calbiochem #444251) 30 minutes prior to CD95L-T4 treatment and the number of migrated cells was counted at the times indicated previously.

[2] = system: dHL-60 cells; assay: Two chamber in vitro migration assay, dHL-60; type: cell-based, human
Experimental: The human myeloid HL-60 cell line (ACC 3) was kindly provided by Dr. Lucie Darner. PMN-like differentiation of HL-60 cells and the electroporation protocol was described previously. Briefly, HL-60 cells were allowed to differentiate in presence of 1.3% DMSO for 6 days before used for protein analysis. Electroporation of dHL-60 cells was performed at day 4. For electroporation, a 400 μL aliquot of dHL-60 (1×10^7 cells/mL) in RPMI was transferred to a Gene Pulser cuvette with an 0.4-cm electrode (Bio-Rad, Hercules, Calif.) and mixed with […] Syk siRNA ON-TARGETplus SMARTpool siRNA or non-targeting SMARTpool siRNA. Cells were incubated for 10 minutes at room temperature (RT) and subjected to an electroporation pulse of 310 V and 1175 μFF (Gene Pulser Biorad, Munich, Germany). 48 h to 72 h after electroporation, Syk knockdown was assessed by Western Blot. At the same time, cells were stimulated with CD95L-T4 and analysed after 4 h for migration.
Migration of bone marrow derived neutrophils or macrophages was assessed in vitro in a two chamber migration assay. Transwell inserts [3 μm (BD #353096) or 8 μm (BD #353097) pore size for neutrophils or macrophages, respectively] were coated with matrigel (50 μg/ml; BD #354234). 5×10^5 neutrophils, 1×10^6 dHL60 or 2×10^5 macrophages were plated in 500 μl medium onto the upper chamber. Cells were left untreated or treated with CD95L-T4 (engineered Mus musculus CD95L (Kleber et al., 2008)) by adding 10, 20 and 40 ng/ml to the upper chamber. The number of migrated cells was counted 3 h for neutrophils, 4 h for dHL-60 and 24 h for macrophages after treatment by using a hemocytometer. […]
as §2

[3] = system: bone marrow derived macrophages; assay: Two chamber in vitro migration assay, macrophages; type: cell-based, mouse
Experimental: as §1
Transfection of primary macrophages was performed at day 8 in culture with lipofectamine (Invitrogen #11668019) according to the manufacturer's protocol. Briefly, macrophages were transfected with mouse […] Syk siRNA ON-TARGETplus SMARTpool siRNA or a non-targeting SMARTpool siRNA using Lipofectamine 2000. 48 h later Syk knockdown was assessed by Western Blot. At the same time, cells were stimulated with CD95L-T4 and analysed after 24 h for migration, MMP-activity or Western blots.
Migration of bone marrow derived neutrophils or macrophages was assessed in vitro in a two chamber migration assay. […] The number of migrated cells was counted 3 h for neutrophils, 4 h for dHL-60 and 24 h for macrophages after treatment by using a hemocytometer. […]

[4] = system: Syk; assay: Western blot, CD95L-induced phosphorylation of Syk in dHL-60; type: cell-based, human; conditions: CD95L 20 and 40 ng/ml
Experimental: (§3) Protein extraction and immunoblotting was performed as previously described. Membranes were probed with the following antibodies: phosphorylated AKT (p-Ser473-AKT, 1:1000, Cell Signaling #9271), total AKT (t-AKT, 1:1000, Cell Signaling #9272), phosphorylated Src (p-Src Tyr 416, 1:1000, Cell Signaling #2101), total Src (1:1000, Cell Signaling #2108), phosphorylated Syk (pSyk Tyr 319/352, 1:1000, Cell Signaling #2701), total Syk (1:1000, Cell Signaling #2712).

[5] = system: Syk; assay: Western blot, CD95L-induced phosphorylation of Syk in primary macrophages; type: cell-based, mouse
Experimental: as §3

Compound: O=C(O)[C@@H](Cc1ccccc1)NS(=O)(=O)c1ccc(-c2ccccc2)cc1 [MMP-2/9 inhibitor]
- CD95L-T4 induced migration of neutrophils (in words) [1]: blocked
- migration after MMP-2/9 blockade, neutrophils, cell count ± SEM ([1]; CD95L-T4 10 ng/ml, with or without inhibitor 50 μM): 10 ng/ml: 724.69 ± 150.01
- migration after MMP-2/9 blockade, neutrophils, cell count ± SEM ([1]; Control (no CD95L-T4), inhibitor 50 μM, 30 min pre-incubation): Control: 713.00 ± 161.89
- CD95L-T4 induced migration of dHL-60 (in words) [2]: blocked
- migration after MMP-2/9 blockade, dHL-60, cell count ± SEM ([2]; CD95L-T4 40 ng/ml, with or without inhibitor 50 μM): 40 ng/ml: 683.09 ± 170.89
- migration after MMP-2/9 blockade, dHL-60, cell count ± SEM ([2]; Control (no CD95L-T4), inhibitor 50 μM): Control: 658.09 ± 137.65
- CD95L-T4 induced migration of macrophages (in words) [3]: blocked
- migration after MMP-2/9 blockade, macrophages, cell count ± SEM ([3]; CD95L-T4 20 ng/ml, with or without inhibitor 50 μM): 323.80 ± 100.20

Compound: CC(C)(C)n1nc(-c2ccc(Cl)cc2)c2c(N)ncnc21 [PP2]
- CD95L-induced phosphorylation of Syk in dHL-60 [4]: blocked; also recorded: inhibited
- CD95L-induced phosphorylation of Syk in primary macrophages [5]: blocked; also recorded: inhibited

Reference: patent publication US20110189194A1, “USE OF CD95 INHIBITORS FOR THE TREATMENT OF INFLAMMATORY DISORDERS” (Deutsches Krebsforschungszentrum Stiftung des offentlichen …, priority 2008, published 2011)
